Data on five compounds can be found in paper PMC8329300, “X-ray crystallography reveals molecular recognition mechanism for sugar binding in a melibiose transporter MelB” (Communications Biology, 2021).

The target in assay [1] is T1, WT MelBSt (Salmonella typhimurium, UniProt P30878).
T1 construct: Cys scanning mutagenesis for the full-length MelBSt; His10 (C); made in house; host or cells: E. coli DW2
The assay can be described thus: biochemical. It is filed as binding. The settings on record: for effect on Trp→D2G FRET of D2G-bound protein (displacement): added to D2G-bound WT MelBSt; for IC50: IC50 of galactoside displacement on bound D2G, DDMB, 10 μM D2G, value could be over-estimated. How it is done:
(§1) Fig. 1 Functional characterizations. a [^3H] Melibiose transport time course with intact cells. […] Inset, melibiose fermentation assay. Transformants with DW2 strain were plated on MacConkey agar plates containing 30 mM melibiose as the sole carbohydrate source and pH sensor neutral red, and incubated at 37 °C for 16–18 h before imaging. Number of tests = 3, from different batch of cells or duplicate measurements from same batch of sample. b Ligand binding by Trp→dansyl galactoside (D^2G) FRET assay. Purified proteins at 1 μM concentration in 20 mM Tris-HCl, pH 7.5, 100 mM CholCl, 10% glycerol, and 0.03% UDM were subjected to steady-state fluorescence measurements as described in Methods. On the time-trace, 1.8 μL of 1 mM D^2G at 10 μM was added into 180 μL of protein solutions at 1-min point, followed by supplying 10 μL of 5 mM DDMB or 5 mM α-NPG to displace the bound D^2G. For testing Na^+ or Li^+ binding, they are added into the solution before displacement with the second sugar. The structure of DDMB or α-NPG is shown in a chair form, and the carbon positions are labeled. Glycosidic bonds are indicated by arrows. Both are α-galactosides containing a substituent at the anomeric carbon-1. The data were from duplicate measurements.
(§2) Steady-state fluorescence measurements were performed with an AMINCO-Bowman series 2 spectrometer with purified MelBSt at 1 μM in 20 mM Tris-HCl, pH 7.5, 100 mM CholCl, 10% glycerol, 0.03% UDM. Using an excitation wavelength at 290 nm, the emission intensity was recorded at 490 nm. On a time-trace, D^2G, NaCl or LiCl, then DDMB or α-NPG, were sequentially added into the protein solutions at a 1 min-interval. […] An identical volume of water was used for the control. The decrease in intensity after each addition of DDMB or α-NPG was corrected by the dilution effect and plotted as a function of the accumulated α-NPG concentrations or estimated DDMB concentrations. The 50% inhibitory concentration (IC50) was determined by fitting a hyperbolic function to the data (OriginPro 2020b). The final concentration of each detergent is estimated to be 234 μM, which is less than their CMC value for (DDMB, 295 μM).
(§3) Supplementary Figure 2. Determination of DDMB binding affinity to MelBSt. (a) Titration with DDMB or a-NPG. MelBSt in 20 mM Tris-HCl, pH 7.5, 100 mM CholCl, 10% glycerol, 0.03% UDM without (1) or with 100 mM NaCl (2) were added with D2G at 10 μM at 1-min time point as indicated by triangle symbols on the Trp®dansyl FRET time trace. Starting at the 2-min of time point, DDMB or a-NPG solution was supplemented consecutively at a 1-min interval into MelBSt solution till no change in fluorescence intensity reached as indicated in star symbols. DDM and UDM were used as negative controls. 1% DDM or UDM was titrated into the mixture, The […]
(§4) At 2-min time point, additions of galactosides were colored in pink, a-NPG in yellow, UDM in blue, DDM in light blue, water in gray traces, respectively. (b) IC50 determination. The intensity decrease at each titration were corrected by the dilution effect, and plotted as a function of the accumulated DDMB or α-NPG concentration. The 50% inhibitory concentration (IC50) was determined by fitting the data to a hyperbolic function (OriginPro 2020b). Results are presented in […]
(§5) (1 picture or pasted object on this page, not shown here)

Assay [2] has as its target T2, D59C MelBSt (Salmonella typhimurium, UniProt P30878, D59C).
T2 construct: Cys scanning mutagenesis for the full-length MelBSt; His10 (C); made in house; host or cells: E. coli DW2
The assay can be described thus: Trp→dansyl galactoside (D2G) FRET time trace and IC50 of D2G displacement (D59C). The class given is binding. Particulars: IC50 of galactoside displacement on bound D2G, DDMB, 10 μM D2G, value could be over-estimated. The method, then: as §1, §2, §3, §4, §5

The target of the next assay is T3, D59A MelBSt (Salmonella typhimurium, UniProt P30878, D59A).
T3 construct: Cys scanning mutagenesis for the full-length MelBSt; His10 (C); made in house; host or cells: E. coli DW2
The assay can be described thus: Trp→dansyl galactoside (D2G) FRET time trace (D59A). The class given is binding. Particulars: no Na+ or Li+ stimulation. The method, then:
Fig. 1 Functional characterizations. a [^3H] Melibiose transport time course with intact cells. E. coli DW2 strain (melB^−, lacZ^−Y^−) expressed with the WT, D59C, or D59A MelBSt mutants were subjected to [^3H]melibiose active transport assay at 0.4 mM and 10 mCi/mmol in the presence of 20 mM or 100 mM NaCl or LiCl by a fast filtration method. Inset, melibiose fermentation assay. Transformants with DW2 strain were plated on MacConkey agar plates containing 30 mM melibiose as the sole carbohydrate source and pH sensor neutral red, and incubated at 37 °C for 16–18 h before imaging. Number of tests = 3, from different batch of cells or duplicate measurements from same batch of sample. b Ligand binding by Trp→dansyl galactoside (D^2G) FRET assay. Purified proteins at 1 μM concentration in 20 mM Tris-HCl, pH 7.5, 100 mM CholCl, 10% glycerol, and 0.03% UDM were subjected to steady-state fluorescence measurements as described in Methods. […]
Steady-state fluorescence measurements were performed with an AMINCO-Bowman series 2 spectrometer with purified MelBSt at 1 μM in 20 mM Tris-HCl, pH 7.5, 100 mM CholCl, 10% glycerol, 0.03% UDM. Using an excitation wavelength at 290 nm, the emission intensity was recorded at 490 nm. […]

The target in assay [3] is T2, D59C MelBSt. The assay can be described thus: biochemical. The settings on record: even with increased concentration or in the presence of melibiose; Kd not determinable. It is filed as binding. The method, then:
(§6) All ITC ligand-binding assays were performed with the TA Instruments (Nano-ITC device) at 25 °C. In a typical experiment, the titrand (MelBSt) in the ITC sample cell was titrated with the specified titrant (placed in the Syringe) by an incremental injection of 2-µL aliquots at an interval of 300 s at a constant stirring rate of 250 r.p.m. All samples were degassed using a TA Instruments Degassing Station (model 6326) for 15 min prior to the titration. Data processing was performed with the NanoAnalyze (version 3.6.0 software) provided with the ITC equipment. The normalized heat changes were subtracted from the heat of dilution elicited by last few injections, where no further binding occurred; the corrected heat changes were plotted against the molar ratio of titrant versus titrand. The values for association constant (Ka) value were determined by fitting the data with a one-site independent-binding model. At most cases, the binding stoichiometry (N) number was fixed to 1 since it is a known parameter, which can restrain the data fitting and achieve more accurate results. The dissociation constant Kd = 1/Ka.
(§7) Supplementary Figure 1. ITC measurements. ITC measurements were performed at 25 °C as described in Methods. (a) Binding thermography. For all tests, ligands and proteins are buffer- […]
(§8) (1 picture or pasted object on this page, not shown here) […]
(§9) matched. For melibiose binding measurements, a solution of 80 mM or 10 mM in the absence or presence of NaCl at 100 mM, was injected into the ITC sample cell containing the WT MelBSt at 80 μM without or with 100 mM NaCl, respectively. With the D59C mutant, […] was used. For α-NPG binding measurements, 0.5 mM or 0.4 mM solution was used to titrate the WT or D59C mutant at 50 μM in the absence or presence or 100 mM NaCl, respectively. For the Na+ or Li+ binding measurements, 5 mM or 2 mM solution was used to titrate WT MelBSt at 80 μM without or with 50 mM melibiose, respectively; 40 mM solutions was used to titrate the D59C mutant. (b) binding isotherm. Curve fit was carried out with a one-site independent-binding model included in the NanoAnalyze software (version 3.6.0).

Assay [4] addresses T1, WT MelBSt. The assay can be described thus: biochemical. The class given is binding. How it is done: as §6, §7, §8, §9
In assay [5] the target is T1, WT MelBSt. Particulars: ITC 25 °C, data from publication or averaged with more tests, read-out: Kd, Na+ binding, cited from earlier work.

Molecules are shown by their SMILES. “And” between values parts separate entries of the source, which are not always exact repeats. Identical values can stand only once. Like-named read-outs stand apart in the source and are kept apart here.

T2 sequence (P30878 whole entry D59C): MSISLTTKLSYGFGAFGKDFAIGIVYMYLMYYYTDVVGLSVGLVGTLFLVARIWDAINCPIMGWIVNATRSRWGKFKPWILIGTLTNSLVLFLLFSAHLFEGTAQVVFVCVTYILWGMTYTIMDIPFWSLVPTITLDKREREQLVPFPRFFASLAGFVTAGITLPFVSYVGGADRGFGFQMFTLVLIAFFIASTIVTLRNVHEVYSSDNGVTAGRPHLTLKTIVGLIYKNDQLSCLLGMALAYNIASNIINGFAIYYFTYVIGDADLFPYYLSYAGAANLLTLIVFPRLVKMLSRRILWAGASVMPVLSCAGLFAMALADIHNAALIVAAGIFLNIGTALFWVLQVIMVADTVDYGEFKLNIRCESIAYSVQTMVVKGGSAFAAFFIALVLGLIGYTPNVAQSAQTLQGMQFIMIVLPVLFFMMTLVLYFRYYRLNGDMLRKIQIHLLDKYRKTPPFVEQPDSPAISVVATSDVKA
T1 sequence (P30878 whole entry): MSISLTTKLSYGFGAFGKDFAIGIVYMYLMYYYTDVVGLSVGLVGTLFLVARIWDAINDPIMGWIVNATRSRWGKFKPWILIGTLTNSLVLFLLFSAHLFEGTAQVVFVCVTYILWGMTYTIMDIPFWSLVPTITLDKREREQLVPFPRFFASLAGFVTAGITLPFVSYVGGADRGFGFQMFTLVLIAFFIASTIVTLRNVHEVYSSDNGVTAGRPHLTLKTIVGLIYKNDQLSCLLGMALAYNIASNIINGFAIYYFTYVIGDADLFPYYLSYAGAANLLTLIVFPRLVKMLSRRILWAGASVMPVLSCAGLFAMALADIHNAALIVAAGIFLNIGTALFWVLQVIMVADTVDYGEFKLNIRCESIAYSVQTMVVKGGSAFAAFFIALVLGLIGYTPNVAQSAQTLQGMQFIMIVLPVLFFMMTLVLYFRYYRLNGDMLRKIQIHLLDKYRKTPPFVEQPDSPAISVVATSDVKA
T3 sequence (P30878 whole entry D59A): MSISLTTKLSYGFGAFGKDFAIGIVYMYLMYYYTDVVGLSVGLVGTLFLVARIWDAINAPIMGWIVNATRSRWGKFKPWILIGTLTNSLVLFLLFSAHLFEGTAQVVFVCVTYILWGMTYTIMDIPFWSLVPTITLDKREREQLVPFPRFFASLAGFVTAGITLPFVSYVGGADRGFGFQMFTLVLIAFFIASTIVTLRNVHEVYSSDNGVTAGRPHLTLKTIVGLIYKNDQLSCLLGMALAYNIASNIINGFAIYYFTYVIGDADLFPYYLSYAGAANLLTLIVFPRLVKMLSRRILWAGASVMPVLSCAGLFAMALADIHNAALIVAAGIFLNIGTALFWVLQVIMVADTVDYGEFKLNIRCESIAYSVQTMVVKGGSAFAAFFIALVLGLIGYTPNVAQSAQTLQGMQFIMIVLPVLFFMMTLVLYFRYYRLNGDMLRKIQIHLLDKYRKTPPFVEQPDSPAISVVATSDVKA

As for `CCCCCCCCCCCCO[C@@H]1O[C@H](CO)[C@@H](O[C@H]2O[C@H](CO)[C@@H](O)[C@H](O)[C@H]2O)[C@H](O)[C@H]1O` [DDM, dodecyl-β-D-maltopyranoside], the “effect on Trp→D2G FRET of D2G-bound protein (displacement)” value on WT MelBSt [1] was “only showed a dilution effect similar to the addition of water”.

Consider `CCCCCCCCCCCCOC1OC(COC2OC(CO)C(O)C(O)C2O)C(O)C(O)C1O` [DDMB, dodecyl-β-D-melibioside], for which the IC50 on WT MelBSt [1] (Apo) is 26.1 ± 5.46 µM; at WT MelBSt [1] (Na+ (100 mM)), 4.79 ± 0.28 µM; at D59C MelBSt [2] (Apo) it was 20 µM and 20.2 µM; on D59C MelBSt [2] (Na+ (100 mM)) it was 23.6 ± 3.9 µM. The “effect on Trp→D2G FRET of D2G-bound protein (displacement)” value at WT MelBSt [1] is on record as “large decrease in fluorescent intensity”. For the same compound, the “decrease of IC50 in the presence of Na+” value on WT MelBSt [1] (apo vs Na+) turned out to be 5 fold. Also, the “ligand binding by Trp→D2G FRET” value on D59A MelBSt is “binds”.

As for `[Li+]` [Li^+], at D59C MelBSt [3], the “heat changes derived from cation binding (ITC)” value is “quite small”. Besides, the Kd stood at 400 ± 100 µM at WT MelBSt [4] (Apo, ITC 25 °C, read-out: Kd, Li+ binding) and 70 ± 10 µM on WT MelBSt [4] (Melibiose (50 mM), ITC 25 °C, read-out: Kd, Li+ binding). Moreover, the “decrease of Kd in the presence of melibiose” value on WT MelBSt [4] (Li+ binding, apo vs melibiose) is recorded as 6 fold.

In the case of `[Na+]` [Na^+], on D59C MelBSt [3], the “heat changes derived from cation binding (ITC)” value was “quite small”. At WT MelBSt [4] (Na+ binding, apo vs melibiose), the “cooperativity, change of Kd with melibiose” value turned out to be 8 fold. The Kd is 500 µM on WT MelBSt [4] (apo MelB, rebuttal letter, read-out: affinity of apo MelB); 680 ± 30 µM on WT MelBSt [5] (Apo); 80 ± 10 µM at WT MelBSt [5] (Melibiose (50 mM)).

As for `CCCCCCCCCCCO[C@@H]1O[C@H](CO)[C@@H](O[C@H]2O[C@H](CO)[C@@H](O)[C@H](O)[C@H]2O)[C@H](O)[C@H]1O` [UDM, undecyl-β-D-maltopyranoside], the “effect on Trp→D2G FRET of D2G-bound protein (displacement)” value on WT MelBSt [1] is listed as “only showed a dilution effect similar to the addition of water”.
